Results as given in patent publication US12099051B2 (priority 2022, dated 2024).
Converted amounts (≈) assume the structure as drawn. “And” between values parts separate entries of the source, which are not always exact repeats. Equal entries are not always repeated.

How the values were obtained:
[1] = test system: Caenorhabditis elegans (N2 wild-type); assay: whole plant or invertebrate; assay type: in vivo
[2] = test system: Caenorhabditis elegans (N2 wild-type); conditions: in vivo
[3] = test system: Caenorhabditis elegans; conditions: in vivo
[4] = test system: Caenorhabditis elegans mutant strain Daf-16 (mu86); conditions: in vivo
[5] = test system: Caenorhabditis elegans mutant strain Daf-2 (e1370); conditions: in vivo
[6] = test system: Caenorhabditis elegans mutant strain Daf-16 (mu86); conditions: in vivo; remark: listed apart in the source
[7] = test system: Caenorhabditis elegans mutant strain Daf-2 (e1370); conditions: in vivo; remark: listed apart in the source

O=C1C=C2C(=CCOC2O)O1 (stereo not shown) [PAT, Patulin]
EC50 ([1]; Caenorhabditis elegans, 24 h): 44.2 µg/mL (≈ 287 µM) | body length ratio ([1]; in vivo): 64.45% and 55.55% | concentration at which nematode's body length is significantly confined (P<0.001) ([1]; in vivo): 25 µg/mL | concentration at which nematode's spawning rate is significantly confined (P<0.001) [2]: 5 µg/mL | spawning rate [2]: 49.41% | relative fluorescence intensity ratio (ROS) [3]: 136.92% and 149.43% | body length ratio of Daf-16 mutant strain compared with N2 wild type [4]: higher body length ratio than the N2 wild type | effect of Daf-2 gene silencing on developmental toxicity [5]: does not slow down the developmental toxicity | spawning rate of Daf-16 mutant strain compared with N2 wild-type [6]: higher spawning rate than the N2 wild-type | spawning rate of Daf-2 mutant strain compared with N2 [7]: no significant difference from N2
